{"source": "paper PMC5978685", "about": "“Design, Synthesis, and Evaluation of Novel Immunomodulatory Small Molecules Targeting the CD40–CD154 Costimulatory Protein-Protein Interaction” (Molecules : A Journal of Synthetic Chemistry and Natural …, 2018)", "key": {"[1]": {"tested_on": "alloantigen-induced T cell response in draining popliteal lymph node", "test": "alloantigen-induced T cell expansion in draining lymph node", "type": "in vivo, mouse (Balb/c)", "settings": "Balb/c mice, DBA-2 splenocytes in footpad; 10–20 mg/kg s.c. b.i.d.; p < 0.0001 vs vehicle", "procedure": "The most promising compounds of the present series were evaluated for in vivo activity using the same model of alloantigen-induced T cell expansion in the draining lymph nodes (DLNs) that was described before. This procedure involved injection of splenocytes isolated from DBA-2 mice into the footpad of Balb/c recipients. Within three full days, this causes a significant increase in the number of cells in the draining popliteal lymph node, and this is inhibited by compounds with immunosuppressive activity.\nThe ability to inhibit alloantigen-induced T cell response in a draining lymph node was tested as described before. In brief, BALB/c mice (10–12 weeks old, female) received a footpad injection of 1 × 10^7 splenocytes isolated from DBA-2 mice (10–12 weeks old, male). CD154 antibody (MR-1; 20 mg/kg, day −1 and 0) or test compounds (20–60 mg/kg; b.i.d. from day −1 to 3, in 20% HPβCD) were administered s.c., and the draining popliteal lymph nodes (DLNs) were collected 3 days after the alloantigen challenge. DLN cells were counted and data are shown as mean ± SD (n = 3–4 per group).\n(§1) All binding inhibition and cell assays were tested in duplicate or triplicate per plates, and assays were performed as at least three independent experiments. As before, binding and cytotoxicity data were converted to percent inhibition and fitted with standard log inhibitor vs. normalized response models using nonlinear regression in GraphPad Prism (GraphPad, La Jolla, CA, USA) to establish half-maximal (median) inhibitory concentration (IC50) or median lethal concentration (LC50) values. Cell assay data were fitted with a similar model that also allowed for a variable slope using the log inhibitor vs. normalized response (variable slope) model from Prism with a Hill slope (n) shared across all compounds. Cell assays and draining lymph node data were analyzed by one-way repeated-measures analysis of variance (ANOVA) followed by Dunnett’s multiple comparison test as a post hoc test for individual differences using GraphPad Prism and a significance level of p < 0.05 for all comparisons.\nFigure 6 Inhibition of alloantigen-induced T cell response in a draining lymph node by compounds 6, 15, 18, and 19. Mice (Balb/c) received a footpad injection of allogeneic splenocytes (isolated from DBA-2 mice) and were treated with anti-CD154 antibody (MR-1; 20 mg/kg, day −1 and 0) or compounds as shown (10–40 mg/kg, b.i.d. from day −1 to 3, s.c. in 20% HPβCD). Draining (popliteal) lymph nodes were collected three days after the alloantigen challenge and cells were counted. Data are shown as mean ± SD. Significant differences compared to vehicle-treated controls are indicated by asterisks (**** p < 0.0001; one-way ANOVA followed by Dunnett’s multiple comparison test)."}, "[2]": {"molecular_target": "T1, CD40–CD154 (CD40L) (Homo sapiens, UniProt P29965)", "T1 construct": "purchased Enzo Life Sciences", "T1 sequence (P29965 116-261 limits assumed)": "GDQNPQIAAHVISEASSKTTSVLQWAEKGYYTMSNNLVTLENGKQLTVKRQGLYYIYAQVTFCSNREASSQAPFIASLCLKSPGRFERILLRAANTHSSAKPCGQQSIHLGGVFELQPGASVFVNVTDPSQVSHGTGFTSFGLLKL", "test": "cell-free ELISA-type binding inhibition assay, CD40–CD154", "settings": "cell-free CD40–CD154 binding inhibition; read-out: CD40 IC50", "source_text": "As a first assessment, the CD40–CD154 inhibitory activity of compounds 6–19 (Figure 2, Table 1) was quantified using a cell-free in vitro binding inhibition assay as described before. Data fitted with typical sigmoidal concentration dependence curves (log inhibitor versus response model in GraphPad Prism, Hill slope n = 1) are summarized in Figure 3A. […] Polymolecular conglomeration and/or aggregation is often a cause of promiscuous inhibition in screening assays. Therefore, just as in our previous work, we checked for this, and we confirmed for several compounds that inhibition due to aggregation is not the case by retesting inhibitory activity in the presence of a non-ionic detergent (Triton-X 100, 0.01%) as recommended for the detection of such effects.\n(§2) Binding inhibition assays were performed in a 96-well cell-free format as described before. Briefly, microtiter plates (Nunc F Maxisorp, 96-well; Thermo Fisher Scientific, Waltham, MA, USA) were coated overnight at 4 °C with 100 μL/well of Fc-conjugated receptors diluted in PBS pH 7.2. This was followed by blocking with 200 μL/well of blocking solution (PBS pH 7.2, 0.05% Tween-20, 1% BSA) for 1 h at RT. Then, plates were washed twice using washing solution (PBS pH 7.4, 0.05% Tween-20) and tapped dry before the addition of the appropriate FLAG tagged ligands along with different concentrations of tested dyes diluted in binding buffer (100 mM HEPES, 0.005% BSA pH 7.2) to give a total volume of 100 μL/well. After 1 h incubation, three washes were conducted, and anti-FLAG HRP conjugate was used to detect the bound FLAG-tagged ligand. Plates were washed four times before the addition of 120 μL/well of HRP substrate TMB (3,3′,5,5′-tetramethylbenzidine) and kept in the dark for up to 15 min. The reaction was stopped using 30 μL of 1M H2SO4, and the absorbance value was read at 450 nm. The concentrations of receptors used were 0.3 μg/mL for CD40, TNF-R1, and BAFFR; 0.6 μg/mL for OX40. The concentrations of the ligands were fixed at 0.02 μg/mL for CD154 and TNF-α, 0.06 μg/mL for OX40L, and 0.03 μg/mL for BAFF. These values were selected following preliminary testing to optimize response (i.e., to produce a high-enough signal at conditions close to half-maximal response, EC50). […] To verify that inhibition is not due to colloidal aggregation, CD40 binding inhibition was also measured in the presence of the non-ionic detergent Triton-X 100 (0.01%), as recommended for the detection of such effects.\nas §1\n(§3) Data are (counterclockwise) for human CD40–CD154 (CD40L) (A); OX40–OX40L (B); BAFFR–BAFF (C); and TNF-R1–TNFα (D) and were fitted with standard binding curves. Data are average ± SD (normalized to percent binding) for n = 3 independent experiments with duplicates for each condition."}, "[3]": {"molecular_target": "T2, OX40–OX40L (Homo sapiens, UniProt P23510)", "T2 construct": "purchased Enzo Life Sciences", "T2 sequence (P23510 51-183 limits assumed)": "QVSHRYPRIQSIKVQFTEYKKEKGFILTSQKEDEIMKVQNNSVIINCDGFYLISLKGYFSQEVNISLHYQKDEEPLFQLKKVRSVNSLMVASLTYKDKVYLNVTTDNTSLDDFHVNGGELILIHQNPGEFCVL", "test": "cell-free ELISA-type binding inhibition assay, OX40–OX40L", "procedure": "(§4) In parallel with the CD40–CD154 assay, the ability of these compounds to inhibit other TNFSFR–TNFSF PPIs, including OX40–OX40L, BAFFR–BAFF, and TNF-R1–TNF-α, was also assessed (Figure 3B–D).\nas §2, §1, §3"}, "[4]": {"molecular_target": "T3, BAFFR–BAFF (Homo sapiens, UniProt Q9Y275)", "T3 construct": "purchased Enzo Life Sciences", "T3 sequence (Q9Y275 134-285 limits assumed)": "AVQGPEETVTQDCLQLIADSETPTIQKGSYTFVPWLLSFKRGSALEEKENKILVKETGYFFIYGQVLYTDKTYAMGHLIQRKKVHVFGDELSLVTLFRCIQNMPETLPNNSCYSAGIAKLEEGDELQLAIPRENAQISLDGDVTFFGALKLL", "test": "cell-free ELISA-type binding inhibition assay, BAFFR–BAFF", "procedure": "as §4, §2, §1, §3"}, "[5]": {"molecular_target": "T4, TNF-R1–TNFα (Homo sapiens, UniProt P01375)", "T4 construct": "purchased Enzo Life Sciences", "T4 sequence (P01375 85-233 limits assumed)": "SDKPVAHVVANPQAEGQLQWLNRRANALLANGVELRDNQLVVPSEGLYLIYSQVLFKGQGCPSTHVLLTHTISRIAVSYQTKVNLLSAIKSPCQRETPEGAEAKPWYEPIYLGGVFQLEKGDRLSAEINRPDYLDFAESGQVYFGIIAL", "test": "cell-free ELISA-type binding inhibition assay, TNF-R1–TNFα", "settings": "cell-free TNF-R1–TNFα binding inhibition; read-out: TNF IC50", "procedure": "as §4, §2, §1, §3"}}, "data": [{"smiles": "COC(=O)c1ccc(C(=O)Nc2ccc(-c3ccc(C(=O)Nc4cccc5cccc(S(=O)(=O)O)c45)cc3)nc2)cc1", "note": "[Compound 19, 8-(4-(5-(4-(Methoxycarbonyl)benzamido)pyridin-2-yl)benzamido)naphthalene-1-sulfonic acid]", "values": [{"measurement": "inhibition of alloantigen-induced T cell expansion in draining lymph node", "setting": "[1]", "result": "inhibited the alloantigen-induced T cell response in this model in statistically significant manner"}, {"measurement": "IC50", "setting": "[2]", "result": 2.41, "unit": "µM"}, {"measurement": "IC50", "setting": "[3]", "result": 6.97, "unit": "µM"}, {"measurement": "IC50", "setting": "[4]", "result": 13.8, "unit": "µM"}, {"measurement": "IC50", "setting": "[5]", "result": 182, "unit": "µM"}]}, {"smiles": "O=C(Nc1ccc(-c2ccc(C(=O)Nc3cccc4c(S(=O)(=O)O)cccc34)cc2)cc1)c1ccc([N+](=O)[O-])cc1", "note": "[Compound 7, 5-(4′-(4-Nitrobenzamido)-[1,1′-biphenyl]-4-carboxamido)naphthalene-1-sulfonic acid]", "values": [{"measurement": "IC50", "setting": "[2]", "result": 0.299, "unit": "µM"}, {"measurement": "IC50", "setting": "[3]", "result": 9.34, "unit": "µM"}, {"measurement": "IC50", "setting": "[4]", "result": 2.01, "unit": "µM"}, {"measurement": "IC50", "setting": "[5]", "result": 555, "unit": "µM"}]}, {"smiles": "COC(=O)c1ccc(C(=O)Nc2ccc(-c3ccc(C(=O)Nc4cccc5cccc(S(=O)(=O)O)c45)cc3)cc2)cc1[N+](=O)[O-]", "note": "[Compound 13, 8-(4′-(4-(Methoxycarbonyl)-3-nitrobenzamido)biphenyl-4-ylcarboxamido)naphthalene-1-sulfonic acid]", "values": [{"measurement": "IC50", "setting": "[2]", "result": 0.39, "unit": "µM"}, {"measurement": "IC50", "setting": "[3]", "result": 86.2, "unit": "µM"}, {"measurement": "IC50", "setting": "[4]", "result": 5.27, "unit": "µM"}, {"measurement": "IC50", "setting": "[5]", "result": 674, "unit": "µM"}]}, {"smiles": "O=C(Nc1ccc(-c2ccc(C(=O)Nc3cccc4cccc(S(=O)(=O)O)c34)cc2)cc1)c1ccc(C(F)(F)F)cc1", "note": "[Compound 8, 8-(4′-(4-(trifluoromethyl)benzamido)biphenyl-4-ylcarboxamido)naphthalene-1-sulfonic acid]", "values": [{"measurement": "IC50", "setting": "[2]", "result": 57.8, "unit": "µM"}, {"measurement": "IC50", "setting": "[3]", "result": 10.1, "unit": "µM"}, {"measurement": "IC50", "setting": "[4]", "result": 42.2, "unit": "µM"}, {"measurement": "IC50", "setting": "[5]", "result": 61.1, "unit": "µM"}]}, {"smiles": "O=C(Nc1ccc2cc(C(=O)Nc3cccc4cccc(S(=O)(=O)O)c34)ccc2c1)c1ccc([N+](=O)[O-])cc1", "note": "[Compound 17, 8-(6-(4-Nitrobenzamido)-2-naphthamido)naphthalene-1-sulfonic acid]", "values": [{"measurement": "IC50", "setting": "[2]", "result": 57.5, "unit": "µM"}, {"measurement": "IC50", "setting": "[3]", "result": 36.6, "unit": "µM"}, {"measurement": "IC50", "setting": "[4]", "result": 81.4, "unit": "µM"}, {"measurement": "IC50", "setting": "[5]", "result": 118, "unit": "µM"}]}, {"smiles": "Cc1cc(NC(=O)c2ccc([N+](=O)[O-])cc2)ccc1-c1ccc(C(=O)Nc2cccc3cccc(S(=O)(=O)O)c23)cc1C", "note": "[Compound 16, 8-(2,2′-Dimethyl-4′-(4-nitrobenzamido)-[1,1′-biphenyl]-4-carboxamido)naphthalene-1-sulfonic acid]", "values": [{"measurement": "IC50", "setting": "[2]", "result": 44.8, "unit": "µM"}, {"measurement": "IC50", "setting": "[3]", "result": 7.28, "unit": "µM"}, {"measurement": "IC50", "setting": "[4]", "result": 26.7, "unit": "µM"}, {"measurement": "IC50", "setting": "[5]", "result": 61.5, "unit": "µM"}]}, {"smiles": "COC(=O)c1cccc2c(NC(=O)c3ccc(-c4ccc(NC(=O)c5ccc([N+](=O)[O-])cc5)cc4)cc3)cccc12", "note": "[Compound 9, Methyl 5-(4′-(4-nitrobenzamido)-[1,1′-biphenyl]-4-carboxamido)-1-naphthoate]", "values": [{"measurement": "IC50", "setting": "[2]", "result": 56, "unit": "µM"}, {"measurement": "IC50", "setting": "[3]", "result": "> 1000", "unit": "µM"}, {"measurement": "IC50", "setting": "[4]", "result": 686, "unit": "µM"}, {"measurement": "IC50", "setting": "[5]", "result": 796, "unit": "µM"}]}, {"smiles": "O=C(Nc1cccc2cccc(S(=O)(=O)O)c12)c1ccc(-c2ccc(NC(=O)c3ccc([N+](=O)[O-])cc3[N+](=O)[O-])cc2)cc1", "note": "[Compound 12, 8-(4′-(2,4-Dinitrobenzamido)-[1,1′-biphenyl]-4-carboxamido)naphthalene-1-sulfonic acid]", "values": [{"measurement": "IC50", "setting": "[2]", "result": 50.5, "unit": "µM"}, {"measurement": "IC50", "setting": "[3]", "result": 10.3, "unit": "µM"}, {"measurement": "IC50", "setting": "[4]", "result": 38.1, "unit": "µM"}, {"measurement": "IC50", "setting": "[5]", "result": 61.7, "unit": "µM"}]}, {"smiles": "O=C(Nc1ccc(-c2ccc(C(=O)Nc3ccc(S(=O)(=O)O)c4cccc(S(=O)(=O)O)c34)cc2)cc1)c1ccc([N+](=O)[O-])cc1", "note": "[Compound 10, 4-(4′-(4-Nitrobenzamido)-[1,1′-biphenyl]-4-carboxamido)naphthalene-1,5-disulfonic acid]", "values": [{"measurement": "IC50", "setting": "[2]", "result": 68.3, "unit": "µM"}, {"measurement": "IC50", "setting": "[3]", "result": 135, "unit": "µM"}, {"measurement": "IC50", "setting": "[4]", "result": 440, "unit": "µM"}, {"measurement": "IC50", "setting": "[5]", "result": 688, "unit": "µM"}]}]}
